“And” between values parts separate entries of the source, which are not always exact repeats. Equal values may be shown once. “Also recorded” adds a separate entry of the source.
Columns and labels:
[1] = test system: HIV-1JR-FL EnvΔCT expressed at the surface of HOS cells; experiment: Cell-based ELISA (CBE), 17b readout; details: for Fold over BNM-III-170 - 17b binding (±0.05): MCG analogs 50 μM, BNM-III-170 5 μM, 2G12 and DMSO normalized; for 17b binding in the CBE assay (screening hit and enantiomers): high-throughput screen follow-up, sCD4 as control, result in words
Protocol: Detection of trimeric HIV-1 Env at the surface of HOS cells was performed by cell-based ELISA, as described in Desormeaux, “The highly conserved layer-3 component of the HIV-1 gp120 inner domain is critical for CD4-required conformational transitions,” J. Virol. 87:2549-2562; Alsahafi, “Effects of the I559P gp41 change on the conformation and function of the human immunodeficiency virus (HIV-1) membrane envelope glycoprotein trimer,” 2015, PLoS One 10:e0122111; and Veillette, “Conformational evaluation of HIV-1 trimeric envelope glycoproteins using a cell-based ELISA assay,” 2014, J. Vis. Exp., 91:51995. To enhance cell-surface expression of HIV-1 EnvRF a stop codon was introduced to replace the codon for Gly 711, truncating the cytoplasmic tail (ACT). Briefly, HOS cells were seeded in T-75 flasks (3×10^6 cells per flask) and transfected the next day with 22.5 μg of Env-expressing plasmids (wild-type and mutants S375W, S375T, H66A, A582T/L587A, etc) using the standard polyethylenimine (PEI, Polyscience Inc, PA, USA) transfection method. Twenty-four hours after transfection, cells were plated in 384-wells plates (2×10^4 cells per well). One day later, cells were washed twice with blocking buffer (10 mg/mL non-fat dry milk, 1.8 mM CaCl2), 1 mM MgCl2, 25 mM Tris, pH 7.5 and 140 mM NaCl) and then incubated for 30 minutes at room temperature with different concentrations of MCG analogs or equivalent volume of vehicle (DMSO). Cells were then incubated for an additional 1 h at room temperature with anti-HIV-1 Env monoclonal antibodies recognizing CD4-induced gp120 epitopes (17b, A32), CD4-binding site gp120 epitopes (VRC03, VRC01, F105, and b12), gp120 V3 glycans (19b, PGT126, PGT122, and 10.1074), gp120 outer domain (2G12), and gp120-gp41 interface (PGT151 and VRC34) epitopes. All ligands were diluted in blocking buffer. A horseradish peroxidase-conjugated antibody specific for the Fc region of human or mouse IgG (Pierce) was then incubated with the samples for 45 minutes at room temperature. For all conditions, cells were washed 5 times with blocking buffer and 5 times with washing buffer (1.8 mM CaCl2), 1 mM MgCl2, 25 mM Tris, pH 7.5 and 140 mM NaCl). HRP enzyme activity was determined after the addition of 20 μl per well of a 1:1 mix of Western Lightning oxidizing and luminol reagents (Perkin Elmer Life Sciences). Light emission was measured with an LB 941 TriStar luminometer (Berthold Technologies) and analysis with Graph Pad software.
The data of Table 2 is given as the fold over BNM-III-170 (5 μM) of Cell-Based ELISA with MCG Analogs (50 μM)—17b readout, 2G12 and DMSO normalized.
To identify molecules able to expose vulnerable Env epitopes, a cell-based ELISA (CBE) assay was adapted, capable of measuring conformational changes of membrane-bound trimeric Env as described in Veillette, 2014, J. Vis. Exp. doi:10.3791/51995:51995; Haim, 2011, PLoS Pathog 7:e1002101, into a high-throughput screening (HTS) platform (FIG. 10A). Briefly, the cytoplasmic-tail deleted HIV-1JR-FL Tier-2/3 Env was expressed on the surface of HOS cells in a 384-well-plate format. The cytoplasmic tail of Env was deleted to enhance Env expression at the cell surface and therefore enhance the sensitivity of the CBE assay. See, Veilette and Haim, 2009, PLoS Pathog 5:e100036. Small molecules or, as a positive control, soluble (sCD4) were added to expose the HIV-1JR-FL EnvΔCT epitope that can be recognized by the CD4i antibody 17b. See, Wyatt, 1995, J. Virol. 69:5723-5733; Rizzuto, 1998, Science 280:1949-1953.
17b binding was detected by a horseradish peroxidase-conjugated (HRP) second antibody, and HRP enzyme activity was measured by Western Lightning oxidizing and luminal reagents. 17b binding in the presence of sCD4 was set as the control (FIG. 10B, blue dots), small molecules that enhanced 17b binding above 25% of the one induced by sCD4 were retested in quadruplicate and only one molecule (UM0059920) was deemed a true positive (FIG. 10B, red dots). […]

[2] = test system: CH58TF infected primary CD4+ T-cells; experiment: HIV+ patient sera/plasma recognition of CH58TF infected primary CD4+ T-cells (flow cytometry cell-surface staining); format: cell-based, HIV-1; details: Human immunodeficiency virus 1, T-cell, read-out: Fold Over DMSO (patient sera, n = 3)
Protocol: Cell-surface staining of primary CD4+ T cells from healthy HIV uninfected individuals or CEM-NKr cells is performed, as described in Prevost, “Influence of the Envelope gp120 Phe 43 Cavity on HIV-1 Sensitivity to Antibody-Dependent Cell-Mediated Cytotoxicity Responses,” 2017, J. Virol 91; Richard, “CD4 mimetics sensitize HIV-1-infected cells to ADCC,” 2015, Proc. Natl. Acad. Sci. USA, 112:E2687-2694; Richard, “Small CD4 Mimetics Prevent HIV-1 Uninfected Bystander CD4+ T Cell Killing Mediated by Antibody-dependent Cell-mediated Cytotoxicity,” 2016, EBioMedicine 3:122-134; Veillette, “The HIV-1 gp120 CD4-Bound Conformation Is Preferentially Targeted by Antibody-Dependent Cellular Cytotoxicity-Mediating Antibodies in Sera from HIV-1-Infected Individuals,” 2015, J. Virol., 89:545-551; Veillette, “Interaction with cellular CD4 exposes HIV-1 envelope epitopes targeted by antibody-dependent cell-mediated cytotoxicity,” 2014, J. Virol., 88:2633-2644; Richard, “Uninfected Bystander Cells Impact the Measurement of HIV-Specific Antibody-Dependent Cellular Cytotoxicity Responses,” 2018, MBio. 9(2): e00358-18; Richard, “BST-2 Expression Modulates Small CD4-Mimetic Sensitization of HIV-1-Infected Cells to Antibody-Dependent Cellular Cytotoxicity,” 2017, J. Virol. 91(11):e00219-17. Binding of HIV-1 infected cells by HIV+ sera (1:1000 dilution) or anti-Env Abs (such as 17b) is performed […] in vitro infection at 37° C. in presence of different concentrations of the MCG analogs or with equivalent volume of vehicle (DMSO). Cells infected with HIV-1 primary isolates are stained intracellularly for HIV-1 p24 using the Cytofix/Cytoperm Fixation/Permeabilization Kit (BD Biosciences, Mississauga, ON, Canada) and then fluorescent anti-p24 mAb (PE-anti-p24, clone KC57; Beckman Coulter/Immunotech, Hialeah, FL) (1:100 final concentration). The percentage of infected cells (p24^+ or GFP+ cells) is determined by gating the living cell population based on the viability dye staining. Samples are analyzed on an LSRII cytometer (BD Biosciences, Mississauga, ON, Canada) and data analysis is performed using FlowJo vX0.7 (Tree Star, Ashland, OR, USA).
HIV+ Patient Sera (n=3) Recognition of CH58TF Infected Primary CD4+ T-Cells
Staining with patient sera and 50 μM of compounds given as a fold change over DMSO (vehicle).
Briefly, Primary CD4 T cells isolated from PBMC were infected with HIV-1CH58TF for 48 hours. For cell surface staining, 5 μg/ml 17b (FIG. 15A) or 1:1000 diluted HIV+ plasma (n=15) (FIG. 15B) were used in the presence of the different MCG analogs (50 μM), (+)-BNM-III-170 or with an equivalent volume of vehicle (DMSO). An Alexa Fluor 647-conjugated anti-human IgG secondary Ab was then used for fluorescent labeling. For ADCC (FIG. 15C), infected cells were used as target cells in a FACS-based ADCC assay that measures the killing of infected (p24+ cells). See, Madani, 2016, J. Virol., 90:5031-5046. The assay determines susceptibility to ADCC mediated by a 1/1,000 dilution of plasma from 15 HIV-1-infected individuals in the presence of the different MCG analogs (50 μM), (+)-BNM-III-170 (50 μM) or with an equivalent volume of vehicle (DMSO). Correlation between cell-surface staining with HIV+ plasma and ADCC was calculated using the Spearman rank correlation (FIG. 15D).

Row | SMILES | Fold over BNM-III-170 - 17b binding (±0.05) [1] | 17b binding in the CBE assay (screening hit and enantiomers) [1] | fold induction at 50 µM [2]
1 | CCCNC(=N)N1CCC[C@H](C(=O)Nc2ccc(Cl)c(F)c2)C1 [(S)-MCG-IV-053-A05] | 0.85 fold | – | –
2 | NCCCNC(=O)N1C[C@H](N)C[C@H](C(=O)Nc2ccc(Cl)c(F)c2)C1 [(3R,5S)-MCG-IV-274] | 0.06 fold | – | –
3 | CS(=O)(=O)N1CCC[C@H](C(=O)Nc2ccc(Cl)cc2)C1 [(S)-MCG-II-153] | 0.20 fold and 0.31 fold | enhanced 17b binding to similar levels as UM0059920; also recorded: active enantiomer | –
4 | CC(C)CNC(=O)N1CCC[C@H](C(=O)Nc2ccc(C(F)(F)F)c(F)c2)C1 [(S)-MCG-IV-063-A06] | 0.36 fold | – | –
5 | O=C(Nc1ccc(Cl)c(F)c1)[C@H]1CCCN(S(=O)(=O)C2CCCCC2)C1 [(S)-MCG-III-116-A03] | 0.36 fold | – | 1.56
6 | CCS(=O)(=O)N1CCC[C@H](C(=O)Nc2ccc(C(F)(F)F)c(F)c2)C1 [(S)-MCG-IV-024-B02] | 0.36 fold | – | –
7 | NCCOC(=O)N1CCC[C@H](C(=O)Nc2ccc(Cl)c(F)c2)C1 [(S)-MCG-IV-267] | 0.30 fold | – | –
8 | CS(=O)(=O)N1CCC(C(=O)Nc2ccc(Cl)c(F)c2)CC1 [MCG-III-101] | 0.21 fold | – | 1.14
9 | CCN(C)C(=O)N1CCC[C@H](C(=O)Nc2ccc(Cl)c(F)c2)C1 [(S)-MCG-IV-031-A04] | 0.54 fold | – | –
10 | NCCCNC(=O)N1CCC[C@H](C(=O)Nc2ccc(Cl)c(F)c2)C1 [(S)-MCG-IV-211] | 0.25 fold | – | –
11 | CCCNC(=O)N1C[C@H](N)C[C@H](C(=O)Nc2ccc(Cl)c(F)c2)C1 [(3R,5S)-MCG-IV-226] | 0.11 fold | – | –
12 | CS(=O)(=O)N1CCC[C@H](C(=O)Nc2ccc(C(F)(F)F)c(F)c2)C1 [(S)-MCG-IV-024-A02] | 0.38 fold | – | –
13 | COC(=O)N1CCC[C@H](C(=O)Nc2ccc(C(F)(F)F)c(F)c2)C1 [(S)-MCG-IV-050-A01] | 0.44 fold | – | –
14 | CCOC(=O)N1CCC[C@H](C(=O)Nc2ccc(C(F)(F)F)c(F)c2)C1 [(S)-MCG-IV-050-A02] | 0.49 fold | – | –
15 | CC(C)CNC(=N)N1CCC[C@H](C(=O)Nc2ccc(Cl)c(F)c2)C1 [(S)-MCG-IV-053-A06] | 0.60 fold | – | –
16 | CCCNC(=O)N1CCC[C@H](C(=O)Nc2ccc(C(F)(F)F)c(F)c2)C1 [(S)-MCG-IV-063-A05] | 0.45 fold | – | –
17 | CCCOC(=O)N1CCC[C@H](C(=O)Nc2ccc(Cl)c(F)c2)C1 [(S)-MCG-IV-058] | 0.51 fold | – | –
18 | CN(C)C(=O)N1CCC[C@H](C(=O)Nc2ccc(Cl)c(F)c2)C1 [(S)-MCG-IV-031-A03] | 0.71 fold | – | –
19 | NCCNC(=O)N1C[C@H](N)C[C@H](C(=O)Nc2ccc(Cl)c(F)c2)C1 [(3R,5S)-MCG-IV-273] | 0.06 fold | – | –
20 | CCNC(=O)N1CCC[C@H](C(=O)Nc2ccc(Cl)c(F)c2)C1 [(S)-MCG-IV-031-A02] | 0.37 fold | – | –
21 | CNC(=N)N1CCC[C@H](C(=O)Nc2ccc(Cl)c(F)c2)C1 [(S)-MCG-IV-053-A01] | 0.42 fold | – | –
22 | CC(C)CNC(=O)N1CCC[C@H](C(=O)Nc2ccc(Cl)c(F)c2)C1 [(S)-MCG-IV-031-A06] | 0.42 fold | – | –
23 | CN(C)C(=O)N1CCC[C@H](C(=O)Nc2ccc(C(F)(F)F)c(F)c2)C1 [(S)-MCG-IV-063-A03] | 0.48 fold | – | –
24 | CCNC(=O)N1CCC[C@H](C(=O)Nc2ccc(C(F)(F)F)c(F)c2)C1 [(S)-MCG-IV-063-A02] | 0.35 fold | – | –
25 | CC(C)COC(=O)N1CCC[C@H](C(=O)Nc2ccc(Cl)c(F)c2)C1 [(S)-MCG-IV-061] | 0.62 fold | – | –
26 | NCCOC(=O)N1C[C@H](N)C[C@H](C(=O)Nc2ccc(Cl)c(F)c2)C1 [(3R,5S)-MCG-IV-272] | 0.07 fold | – | –
27 | CNC(=O)N1CCC[C@H](C(=O)Nc2ccc(C(F)(F)F)c(F)c2)C1 [(S)-MCG-IV-063-A01] | 0.33 fold | – | –
28 | CS(=O)(=O)N1CCC[C@@H](C(=O)Nc2ccc(Cl)cc2)C1 [(R)-MCG-II-156] | 0.08 fold | not | –

Source: US12286401B2, “Small molecules that sensitize HIV-1 infected cells to antibody dependent cellular cytotoxicity” (THE TRUSTEES OF THE UNIVERSITY OF PENNSYLVANIA, priority 2018, dated 2025)
